# From patent US20190308987A1, “DUAL MODULATORS OF BOTH MU AND KAPPA OPIOID RECEPTORS” (priority 2016, published 2019)
# Several values for one entry are separate records, joined by “and”; a condition that tells them apart may be missing. Identical values can stand only once.
# Key:
# [1] = tested on: mouse proximal colon circular muscle; assay: Colon circular muscle isometric tension recordings, proximal colon
# Protocol: (§1) Mice were euthanized by cervical dislocation. The colon was dissected, flushed of its contents, and trimmed of mesentery. […] The tissues, 0.5 cm in length, were suspended vertically along the axis of the circular muscle with a metal triangle tied to a hook under 1 g of passive tension in 15 mL siliconized organ baths.
# (§2) Data are presented as the mean±S.E.M, values of P≤0.05 were considered significant.
# [2] = target: T1, kappa opioid receptor (KOR) (Homo sapiens, UniProt P41145); assay: Competitive radioligand binding, KOR ([3H]nor-BNI)
# T1 construct: expressed in transfected cells; host or cells: CHO cells (membranes)
# Protocol: (§3) The details of the Radioligand Binding and Functional Studies that were used were described previously.^19 Chinese hamster ovarian (CHO) cell lines were used as monoclonal opioid receptor expressing cells. The μ, δ, and κ opioid receptors were labeled with [^3H]naloxone, ^3H-naltrindole ([^3H]NTI) and ^3H-nor-Binaltorphimine ([^3H]norBNI). The opioid receptor expressing cell membranes were incubated with the radioligands at different concentrations of the drug under investigation at 30° C. for 1 h. With the absence and presence of 10 μM naltrexone, specific binding was got as the difference in binding obtained. The specific binding of the drugs to the radioligand was calculated from data using linear regression analysis of Hill plots.
# (§4) All samples were assayed in triplicate and repeated at least twice for a total of 3 independent determinations. Results were reported as mean values±SEM. Concentration-effect curves were fit by nonlinear regression to a one-site binding model, using GraphPad Prism software, to determine EC50 and Emax values. IC50 values were obtained from Hill plots and analyzed by linear regression using Microsoft Excel software. Binding Ki values were determined from IC50 values using the Cheng-Prusoff equation: Ki=IC50/l+([L]/KD), where [L] is the concentration of […] and KD is the KD of the radioligand.
# mu opioid receptor (MOR) = target: T2, mu opioid receptor (MOR) (Mus musculus, UniProt P42866); assay: Competitive radioligand binding, MOR ([3H]naloxone); settings: mean ± SEM of three experiments
# T2 construct: expressed in transfected cells; host or cells: CHO cells (membranes)
# Protocol: as §3, §4
# MOR = MOR (Mus musculus, UniProt P42866); assay: [35S]GTPγS-binding assay, low MOR-expressing CHO cell line membranes; assay type: biochemical; parameters: expressed in transfected cells; host or cells: CHO cells (membranes)
# Protocol: [^35S]GTPγS-binding Assays using a Low MOR-expressing CHO Cell Line: Cell membranes were incubated with varying concentrations of BNAP or 3 μM DAMGO (standard full agonist at MOR) in the presence of 10 μM GDP and 0.1 nM [^35S]GTPγS in assay buffer (50 mM Tris-HCl, pH 7.4, 3 mM MgCl2, 0.2 mM EGTA and 100 mM NaCl) for 90 min at 30° C. Nonspecific binding was determined using 10 μM unlabeled GTPγS. The incubation was terminated by rapid vacuum filtration through GF/B glass fiber filters. Bound radioactivity was determined by liquid scintillation spectrophotometry. Additional methodological details of the assay were described previously.^9
# as §4
# [3] = tested on: guinea pig ileum Longitudinal Muscle Myenteric Plexus (LMMP); assay: Electrical field stimulated contractions in LMMP strips
# Protocol: Male albino guinea pigs (350-450 g) were euthanized by asphyxiation with CO2. A segment of ileum was removed and placed in a dissection bath filled with pre-oxygenated Krebs' solution (118 mM NaCl, 4.6 mM KCl, 1.3 mM NaH2PO4, 1.2 mM MgSO4, 25 mM NaHCO3, 11 mM glucose, and 2.5 mM CaCl2). Longitudinal Muscle Myenteric Plexus (LMMP) strips were prepared as previously described.^26 Electrical field stimulation (EFS) (50 V, 7.5 Hz, unless stated otherwise) was applied through concentric electrodes over longitudinal muscle or L-type stimulating electrodes over circular muscle strips to produce neurogenic contractions/relaxations. Drugs were added in single or cumulative doses depending on the assay to determine their inhibitory effects on the neurogenic responses.
# intestinal transit = assay: Charcoal meal test for gastrointestinal transit; assay type: in vivo, mice
# Protocol: Forty-eight hours before testing, mice were placed in cages with raised mesh wire to suspend them above their bedding and prevent ingestion of feces or bedding. The animals were habituated for 24 h in the presence of food and water and then fasted for 24 h with free access to water as previously reported.^24 This time frame was chosen to deplete the intestine and colon of any feces. To maintain caloric intake and to avoid hypoglycemia, mice had access to a sugar water solution consisting of a final concentration of 5% dextrose for the first 8 h of the fasting period. […] At 30 min after the administration of the charcoal meal, the mice were euthanized by cervical dislocation, and the small intestine from the jejunum to the cecum was dissected and placed in cold saline to stop peristalsis. The distance traveled by the leading edge of the charcoal meal was measured relative to the total length of the small intestine, and the percentage of intestinal transit for each animal was calculated as percentage transit (charcoal distance)/(small intestinal length)×100. This is referred to as intestinal transit in the text.
# KOR = target: T3, KOR (Homo sapiens, UniProt P41145); assay: [35S]GTPγS-binding assay, KOR-expressing CHO cell membranes; assay type: biochemical
# T3 construct: expressed in transfected cells; host or cells: CHO cells (membranes)
# Protocol: [^35S]-GTPγS-Binding Assays using DOR- or KOR-Expressing CHO Cell Lines: Cell membranes (10 μg protein) were incubated with 10 μM GDP and 0.1 nM [^35S]-GTPγS in assay buffer in the presence and absence of varying concentrations of BNAP, 3 μM SNC80 (standard full agonist at DOR) or 3 μM U50,488H (standard full agonist at KOR) for 90 min at 30° C. Nonspecific binding was determined with 10 μM unlabeled GTPγS. The reaction was terminated and bound radioactivity determined as described above and previously.^9
# as §4
# colonic motility = assay: Colonic bead expulsion assay; assay type: in vivo, mice
# Protocol: Mice were habituated and fasted as described above for the gastrointestinal transit analysis. […] At 20 min post-injection, animals were anesthetized with isoflurane (1-2 min) to insert a single 2-mm glass bead into the distal colon at a distance of 3 cm from the anus. Bead insertion was accomplished using a glass rod with a fire-polished end to avoid tissue damage and marked at 3 cm.^25 After bead insertion, mice were placed in individual cages and the time to bead expulsion was monitored. Animals were monitored for a maximum of 2 h unless bead expulsion occurred sooner.
# [4] = tested on: mouse distal colon circular muscle; assay: Colon circular muscle isometric tension recordings, distal colon
# Protocol: as §1, §2
smiles,measurement,setting,value
O=C(N[C@@H]1CC[C@@]2(O)[C@H]3Cc4ccc(O)c5c4[C@@]2(CCN3CC2CC2)C1O5)c1cc[n+](Cc2ccccc2)cc1 (stereo partly drawn) [BNAP],inhibition of morphine-induced contractions,"[1]; 1 nM antagonist, proximal colon",neither NAP nor BNAP showed significant inhibition of morphine-induced contractions
same,morphine pD2 in presence of antagonist,"[1]; 10 nM antagonist, proximal colon (naive 6.8)",5.9
same,further reduction of morphine pD2,"[1]; 100 nM versus 10 nM antagonist, proximal colon",no further reduction of the morphine pD2
same,contractions induced by compound alone,"[1]; up to 30 μM, proximal colon preparation",Neither BNAP nor NAP alone at concentrations up to 30 μM induced contractions
same,Ki,"[2]; KOR, [3H]nor-BNI, read-out: Ki (nM) ± SEM",3.46 ± 0.05 nM
same,Selectivity (κ/μ),[2]; ratio of Ki KOR/MOR,4.6
same,Ki,mu opioid receptor (MOR),0.76 ± 0.09 nM
same,EC50,"MOR; EC50 (nM), 35S-GTP[γS]",4.84 nM and 4.8 nM
same,% max of agonist,MOR; Emax relative to full agonist DAMGO,14.6±0.9%
same,IC50,"[3]; Cavia porcellus, guinea pig ileum LMMP, read-out: pIC50 for inhibition of EFS contractions (converted)",13.8 nM
same,effect of nor-BNI on agonist concentration-response curve,"[3]; nor-BNI pretreatment 15 min, dose dependent",dose dependently shifted the BNAP concentration-response curve to the right
same,reduction of intestinal motility,"intestinal transit; charcoal gavage, compound alone",1.5 fold
same,reversal of morphine induced inhibition of intestinal motility,intestinal transit; mice treated acutely with morphine,unable to reverse morphine induced inhibition of intestinal motility
same,EC50,KOR; 35S-GTP[γS],2.9 ± 1.1 nM
same,% max of agonist,"KOR; Emax relative to full agonist U50,488H",45.9±1.7%
same,bead expulsion time,"colonic motility; BNAP alone 10 mg/kg, naive mice 17 min",43 min
same,antagonism of morphine's effect on bead expulsion,colonic motility; BNAP concurrently or 5 or 15 min before morphine,no significant antagonism of morphine's effects was observed
same,inhibition of morphine-induced contractions,"[4]; 1 nM antagonist, distal colon",neither NAP nor BNAP showed significant inhibition of morphine-induced contractions
same,antagonism of morphine effects,"[4]; 10 nM antagonist, distal colon",neither NAP nor BNAP showed significant antagonism of morphine effects
same,morphine pD2 in presence of antagonist,"[4]; 100 nM antagonist, distal colon (naive 6.0)",5.2
same,contractions induced by compound alone,"[4]; up to 30 μM, distal colon preparation",Neither BNAP nor NAP alone at concentrations up to 30 μM induced contractions
